One data set has as its target T1, IL-23R (Homo sapiens, UniProt Q5VWK5).
T1 construct: host or cells: HEK293
T1 sequence (Q5VWK5 24-629): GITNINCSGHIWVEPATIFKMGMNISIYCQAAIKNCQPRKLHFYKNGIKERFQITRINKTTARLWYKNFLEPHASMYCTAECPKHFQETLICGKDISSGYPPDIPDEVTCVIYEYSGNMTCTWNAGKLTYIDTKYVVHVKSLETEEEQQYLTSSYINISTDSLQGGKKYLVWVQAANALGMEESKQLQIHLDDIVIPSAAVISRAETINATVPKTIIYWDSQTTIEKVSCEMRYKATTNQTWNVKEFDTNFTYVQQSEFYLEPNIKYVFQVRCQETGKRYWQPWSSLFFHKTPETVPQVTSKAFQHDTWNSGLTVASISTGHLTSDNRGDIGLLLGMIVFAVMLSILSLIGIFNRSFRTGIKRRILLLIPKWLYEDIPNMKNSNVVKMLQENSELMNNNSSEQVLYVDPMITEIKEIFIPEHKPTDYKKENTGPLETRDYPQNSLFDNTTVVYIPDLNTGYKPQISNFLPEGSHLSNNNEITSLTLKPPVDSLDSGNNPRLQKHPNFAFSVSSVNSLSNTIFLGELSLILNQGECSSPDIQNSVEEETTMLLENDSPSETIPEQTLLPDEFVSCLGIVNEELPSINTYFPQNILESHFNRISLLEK
Briefly: IL-23R reporter assay (HEK293, STAT-inducible luciferase). It is filed as cell-based. The following applies: Table 4; HEK293 cells with IL-23R, IL-12Rβ1 and STAT-inducible luciferase reporter, stimulated with IL-23. On the procedure: Example 4. IL-23R Reporter Assay
Compounds were serially diluted in 100% (v/v) DMSO) and plated using an Echo acoustic dispenser (Labcyte) into 1536-well non-treated black assay plates (Corning #9146). […] After 5 h at 37° C., 5% CO2, 95% relative humidity, cells were placed at 20° C. and treated with BioGlo reagent (Promega) according to the manufacturer's instructions. Luminescence was measured on a Pherastar FSX (BMG LabTech). […] Where multiple measurements have been made the average is shown with the number of replicates indicated in parenthesis following the IC50 values.

Data set [1] has as its target T2, peripheral blood mononuclear cells (PBMCs) stimulated with IL-23 (Homo sapiens, UniProt Q5VWK5).
T2 sequence (Q5VWK5 24-629): T1 sequence (Q5VWK5 24-629)
Briefly: PBMC pSTAT3 assay. The class given is cell-based. The following applies: PBMCs from healthy donors; IL-23 5 ng/mL, 30 minutes; phosphorylated STAT3 in lysates. On the procedure:
Cryopreserved peripheral blood mononuclear cells (PBMCs) from healthy donors were thawed and washed twice in ImmunoCult-XF T cell expansion medium (XF-TCEM) supplemented with CTL anti-aggregate wash. The cells were counted, resuspended at 2×10^5 cells per mL XF-TCEM supplemented with penicillin/streptomycin and 100 ng/mL […] (BioLegend, 579404), and cultured in tissue culture flasks coated with anti-CD3 (eBioscience, 16-0037-85 or BD Pharmingen, 555329) at 37° C. in 5% C02. On day 4 of culture, PBMCs were collected, washed twice in RPMI-1640 supplemented with 0.1% BSA (RPMI-BSA), and incubated in RPMI-BSA in upright tissue culture flasks for 4 hours at 37° C. in 5% C02. Following this ‘starvation,’ a total of 6×10^4 cells in 30 μL RPMI-BSA was transferred into each well of a 384-well plate pre-spotted with peptide or DMSO. The cells were incubated for 30 minutes prior to the addition of IL-23 at a final concentration of 5 ng/mL. The cells were stimulated with cytokine for 30 minutes at 37° C. in 5% C02, transferred onto ice for 10 minutes, and lysed. Cell lysates were stored at −80° C. until phosphorylated STAT3 was measured using the phospho-STAT panel kit (Meso Scale Discovery, K15202D). The results produced with PBMCs are provide in Table 5 below for several from Examples along with data from the IL23R Reporter Assays utilizing HEK293 cells described above. […]

For data set [2] the following is noted: the molecule shown is the open-chain precursor, 20-membered ring.

pIC50: −log10 of the molar value. Read-outs that look alike come from different tables or passages of the source. Where a SMILES comes first, the peptide text is derived from it. Bridges are numbered along the chain shown (N, C = ends). [ ]: non-standard residue; d: D form. The star is where a group is joined. Me3N+(CH2)2O(CH2)2O(CH2)2CO = C[N+](C)(C)CCOCCOCCC(=O)*; Trp(7-Me) = Cc1cccc2c(C[C@H](N)C(=O)O)c[nH]c12; 2Nal = N[C@@H](Cc1ccc2ccccc2c1)C(=O)O; AEF = NCCOc1ccc(C[C@H](N)C(=O)O)cc1; 3Pal = N[C@@H](Cc1cccnc1)C(=O)O; Aad = N[C@@H](CCCC(=O)O)C(=O)O; Lys(Me) = CNCCCC[C@H](N)C(=O)O; Pen = CC(C)(S)[C@H](N)C(=O)O; Thp = NC1(C(=O)O)CCOCC1; X1 = C[N+](C)(C)CCCCC*; Sar = CNCC(=O)O

With “PEG2(2)-Pen(3)-N-T-7MeW-K(Ac)-Pen(3)-AEF-2Nal-THP-hE(2)-N-3Pya-Sar-CONH2”, the ring closure, yield after HPLC (amide bond, 32-membered ring, HATU/DIEA, then N2H4, DMF, 4.8 mM, 2 steps) amounted to 14%.

`CC(=O)NCCCC[C@@H]1NC(=O)[C@H](Cc2c[nH]c3c(C)cccc23)NC(=O)[C@H]([C@@H](C)O)NC(=O)[C@H](CC(N)=O)NC(=O)[C@@H](NC(=O)CCCCCCN)C(C)(C)SSC(C)(C)[C@@H](C(=O)N[C@H]2Cc3ccc(cc3)OCCNC(=O)CC[C@@H](C(=O)N[C@@H](CC(N)=O)C(=O)N[C@@H](Cc3cccnc3)C(=O)N(C)CC(N)=O)NC(=O)C3(CCOCC3)NC(=O)[C@H](Cc3ccc4ccccc4c3)NC2=O)NC1=O` [Example 137, [7AminoHeptanoicAcid]-[Pen]-N-T-[W(7-Me)]-[Lys(Ac)]-[Pen]-[Phe(4-(2-aminoethoxy))]-[2Nal]-[THP]-E-N-[3Pal]-[Sarc]-NH2] gave a negative-log IC50 (pIC50) on IL-23R of 6.37.

In turn, “McCO-Glu-Pen-N-T-7MeW-K(Ac)-Pen-AEF-2Nal-THP—K(Ac)—N-3Pva-Sar-CONH2” gave a ring closure, yield after HPLC (amide bond, 24-membered ring, HATU/DIEA, DMF, 0.24 mM, 2 steps) of 10%.

“7Ahp(2)-Pen(3)-N-T-7MeW-K(Ac)-Pen(3)-AEF-2Nal-THP-E(2)-N-3Pya-Sar-CONH2” had a ring closure, yield after HPLC (amide bond, 30-membered ring, PyBOP/DIEA, DMF, 5.0 mM) of 13%.

The compound “6Ahx(2)-Abu(1)-N-T-W-Q-C(1)-AEF-2Nal-THP-E(2)-N-3Pya-Sar-CONH2” yielded a ring closure, yield after HPLC (amide bond, 29-membered ring, PyBOP/DIEA, DMF, 5.0 mM) of 5%.

With “ac-Pen(1:3)-E(2:3)-T-Trp 7Me-Lys Ac-Pen(1:3)-Phe 4 2ae(2:3)-Nal-THP-Lys Ac—N—H-Sar-am”, where the note is “amide bond, 24-membered ring, PyBOP/DIEA, DMF, 1.0 mM”, the ring closure, yield after HPLC was found to be 50%.

As to `CC(=O)N(C)CCCC[C@@H]1NC(=O)[C@H](Cc2c[nH]c3c(C)cccc23)NC(=O)[C@H]([C@@H](C)O)NC(=O)[C@H](CC(=O)N(C)C)NC(=O)[C@H]2NC(=O)[C@H](NC(=O)CCOCCOCC[N+](C)(C)C)CCCCNC(=O)CCC[C@@H](C(=O)N[C@@H](CC(N)=O)C(=O)N[C@@H](Cc3cccnc3)C(=O)N(C)CC(=O)N(C)C)NC(=O)C3(CCOCC3)NC(=O)[C@H](Cc3ccc4ccccc4c3)NC(=O)[C@H](Cc3ccc(OCCCCC[N+](C)(C)C)cc3)NC(=O)[C@@H](NC1=O)C(C)(C)SSC2(C)C` [Compd 319] ({Me3N+(CH2)2O(CH2)2O(CH2)2CO}-[dK][Pen]D(NMe2)T[Trp(7-Me)][Lys(Me)](Ac)[Pen]Y(X1)[2Nal][Thp][Aad]N[3Pal][Sar]-NMe2; lactam 1-11; disulfide 2-7), in data set [1], the negative-log IC50 (pIC50) is 11.10.

“McCO-k(2)-Pen(3)-O-T-W-Q-Pen(3)-AEF-2Nal-THP-E(2)-N-bAla-CONH2” displayed a ring closure, yield after HPLC (amide bond, 29-membered ring, HATU/DIEA, then N2H4, DMF, […], 2 steps) of 49%.

For the setting “from Ac-dLys-Pen-Gln-Thr-Trp-Gln-Pen-AEF(Dde)-2Nal-THP-Glu-Asn-bAla-NH2?, disulfide bond, 20-membered ring, I2/AcOH, H2O/MeCN 1:1, 0.5 mM”, `CC(=O)N[C@H](CCCCN)C(=O)N[C@@H]1C(=O)N[C@@H](CCC(N)=O)C(=O)N[C@@H]([C@@H](C)O)C(=O)N[C@@H](Cc2c[nH]c3ccccc23)C(=O)N[C@@H](CCC(N)=O)C(=O)N[C@H](C(=O)N[C@@H](Cc2ccc(OCCNC(C)=C3C(=O)CC(C)(C)CC3=O)cc2)C(=O)N[C@@H](Cc2ccc3ccccc3c2)C(=O)NC2(C(=O)N[C@@H](CCC(=O)O)C(=O)N[C@@H](CC(N)=O)C(=O)NCCC(N)=O)CCOCC2)C(C)(C)SSC1(C)C` returned a ring closure, yield after HPLC of 48%.

Where the note is “the molecule shown is the open-chain precursor, disulfide bond, 20-membered ring, I2/MeOH, MeCN/H2O 20:80, 1.0 mM, with chain assembly”, “Ac-Pen-Glu-Thr-Trp_7Me-Lys(Ac)-Pen-Phe_4_2ae-2Nal-THP-Lys(Ac)-Asn-His-Sar-NH2” yielded a ring closure, yield after HPLC of 30%.

In turn, “H-7Ahp-Pen-Asn-Thr-7MeTrp-Lys(Ac)-Pen-AEF-2Nal-THP-Glu-Asn-3Pya-Sar-NH2” yielded a ring closure, isolated yield in data set [2] (disulfide bond, I2/MeOH, MeCN/H2O 30:70, 1.0 mM) of 30.3%.

The compound “H-6Ahx-Abu(4-Cl)-Asn-Thr-Trp-Gln-Cys-AEF-2Nal-THP-Glu-Asn-3Pya-Sar-NH2?” came in with a ring closure, isolated yield in data set [2] (thioether bond, NaI/EDTA/Na2CO3, DMF, 1.07 mM) of 21%.

Compound “ac-Pen(1:3)-Dap(2:3)-T-Trp 7Me-Lvs Ac-Pen(1:3)-Phe 4 2ae(3:3)-Nal-THP-Lys Ac—N—H-Sar-am-PEG4DA(x,2:1,3:2)” registered a ring closure, yield after HPLC (crosslinker bond, 39-membered ring, PEG4DA-NHS/DIEA, DMF, 1.0 mM) of 50%.

Take `CC(=O)NCCCC[C@@H]1NC(=O)[C@H](Cc2c[nH]c3ccccc23)NC(=O)[C@H]([C@@H](C)O)NC(=O)[C@H]2CCC(=O)NCCOc3ccc(cc3)C[C@@H](C(=O)N[C@@H](Cc3ccc4ccccc4c3)C(=O)NC3(C(=O)N[C@@H](CCCCNC(C)=O)C(=O)N[C@@H](CO)C(=O)N[C@@H](Cc4cccnc4)C(=O)N(C)CC(N)=O)CCOCC3)NC(=O)[C@@H](NC1=O)C(C)(C)SSC(C)(C)[C@H](NC(C)=O)C(=O)N2` [Example 4, Ac-[Pen]-E-T-W-[Lys(Ac)]-[Pen]-[Phe(4-(2-aminoethoxy))]-[2Nal]-[THP]-[Lys(Ac)]-S-[3Pal]-[Sarc]-NH2] (Ac-[Pen][dE]TWK(Ac)[Pen][AEF][2Nal][Thp]K(Ac)S[3Pal][Sar]-NH2; disulfide 1-6; lactam 2-7): the pIC50 against IL-23R is 6.48.

“H-PEG2-Pen-Asn-Thr-7MeTrp-Lys(Ac)-Pen-AEF(Dde)-2Nal-THP-hGlu-Asn-3Pya-Sar-NH2” returned a ring closure, isolated yield in data set [2] (disulfide bond, I2/MeOH, H2O/MeCN 1:1, 0.46 mM) of 32%.

Turning to `CC(=O)NCCCC[C@@H]1NC(=O)[C@H](Cc2c[nH]c3c(C)cccc23)NC(=O)[C@H]([C@@H](C)O)NC(=O)[C@H](CC(N)=O)NC(=O)[C@@H](NC(=O)CCCCCCN)C(C)(C)SSC(C)(C)[C@@H](C(=O)N[C@H]2Cc3ccc(cc3)OCCNC(=O)CC[C@@H](C(=O)N[C@@H](CC(N)=O)C(=O)NC3(C(N)=O)CCOCC3)NC(=O)C3(CCOCC3)NC(=O)[C@H](Cc3ccc4ccccc4c3)NC2=O)NC1=O` [Example 139, [7AminoHeptanoic Acid]-[Pen]-N-T-[W(7-Me)]-[Lys(Ac)]-[Pen]-[Phe(4-(2-aminoethoxy))]-[2Nal]-[THP]-E-N-[THP]-NH2], the negative logarithm of the IC50 (pIC50) against IL-23R was less than 4.78.

In turn, “Ac-O2R-Pen-Gln-Thr-Trp-Gln-Pen-Phe[4-(2-aminoethoxy)]-2Nal-THP-O2R-Asn-bAla-NH2” displayed a ring closure, yield after HPLC (the molecule shown is the open-chain precursor, disulfide bond, 20-membered ring, I2/AcOH, then Boc2O/DIEA, H2O/MeCN, 0.55 mM, 2 steps) of 40%.

For the compound `CC(=O)NCCCC[C@@H]1NC(=O)[C@H](Cc2c[nH]c3c(C)cccc23)NC(=O)[C@H]([C@@H](C)O)NC(=O)[C@H](CC(N)=O)NC(=O)[C@H]2NC(=O)CCCCCCNC(=O)CC[C@@H](C(=O)N[C@@H](CC(N)=O)C(=O)N(C)[C@H](Cc3ccc(O)cc3)C(N)=O)NC(=O)C3(CCOCC3)NC(=O)[C@H](Cc3ccc4ccccc4c3)NC(=O)[C@H](Cc3ccc(OCCN)cc3)NC(=O)[C@@H](NC1=O)C(C)(C)SSC2(C)C` [Example 25, [7AminoHeptanoicAcid]-[Pen]-N-T-[W(7-Me)]-[Lys(Ac)]-[Pen]-[Phe(4-(2-aminoethoxy))]-[2Nal]-[THP]-E-N-[(D)NMeTyr]-NH2], the negative logarithm of the IC50 (pIC50) at IL-23R is 6.08.

A word on the pIC50: it is −log10 of the IC50, conventionally taken in molar units. High values mean a small IC50, low ones a large IC50.

The values are drawn from patent publication US20240352073A1, “BICYCLIC PEPTIDE INHIBITORS OF INTERLEUKIN-23 RECEPTOR” (Janssen Biotech, Inc., priority 2021, published 2024).
